Ki and Types of inhibition data for 3 compounds are collected here from PMC10511816 (The Journal of Biological Chemistry, 2023).

In experiment [1] the target is XOR. Particulars: read-out: Ki for the conversion of xanthine to uric acid; cited from earlier work.
The target of experiment [2] is T1, XOR (Bos taurus, UniProt P80457).
T1 construct: Bovine milk was obtained from the animal farm of the Nippon Veterinary and Life Science University; from tissue; host or cells: bovine milk
In words: XOR kinetics with phenazine methosulfate / cytochrome c reduction (550 nm). The experiment is classed as biochemical, bovine. Particulars: XOR, PMS. As for the experimental part: Therefore, phenazine methosulfate was used to induce direct, rapid reoxidation of the molybdenum center ([22], [23]).
Bovine milk was obtained from the animal farm of the Nippon Veterinary and Life Science University. […] The dehydrogenase form of the enzyme (XDH) was obtained by reacting XO immediately upon purification with 5 mM DTT at pH 8.5, 25 °C for 1 h. XO and XDH assays were carried out at 25 °C under aerobic conditions. […] A total of 500 μM β-NAD^+ was added to the same reaction solution for XDH activity. Physiological conditions such as pH 7.4 (0.1 M potassium phosphate buffer (KPB), 0.2 mM EDTA) and the addition of 50 μM β-NADH were also used. […] In addition, the enzyme reaction solution was quenched with perchloric acid and neutralized with K2CO3, with products analyzed using HPLC as described below. Spectrophotometric data were analyzed using UV-Probe software Ver. 2.70 or LabSolutions UV-Vis Ver. […] Kinetic parameters were determined from nonlinear curve fits of raw data using GraphPad Prism 9 software.
A295 indicates the concentration of uric acid yielded by XOR. […] A295 indicates the concentration of uric acid yielded by XOR. Figure S2. The XOR inhibition mode of oxypurinol.A–G, Lineweaver-Burk plots were generated to visualize data and estimated the inhibition patterns. Data are representative of least two independent experiments. […] Figure S3. […] B, mode of inhibition of oxypurinol on the inosine degradation reaction of PNP. […] 0, 250, 375, 500, 750 and 1000 μM of oxypurinol were used. […] The rate of NAD^+ conversion to NADH was measured at A340 nm.

In experiment [3] the target is T2, Purine nucleoside phosphorylase (PNP) (Homo sapiens, UniProt P00491).
T2 construct: purchased Sigma-Aldrich; host or cells: E. coli
T2 sequence (P00491 1-289): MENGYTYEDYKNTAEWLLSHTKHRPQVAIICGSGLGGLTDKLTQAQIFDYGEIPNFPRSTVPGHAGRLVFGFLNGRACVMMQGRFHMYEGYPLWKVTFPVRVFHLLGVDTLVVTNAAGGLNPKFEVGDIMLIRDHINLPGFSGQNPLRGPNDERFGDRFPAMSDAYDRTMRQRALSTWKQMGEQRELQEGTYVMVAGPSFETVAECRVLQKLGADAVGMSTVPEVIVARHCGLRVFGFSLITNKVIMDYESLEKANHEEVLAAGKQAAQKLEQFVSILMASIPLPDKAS
The arrangement: method as in PMID 5653179, PMID 121041. Particulars: cited from earlier work.

T1 sequence (P80457 whole entry): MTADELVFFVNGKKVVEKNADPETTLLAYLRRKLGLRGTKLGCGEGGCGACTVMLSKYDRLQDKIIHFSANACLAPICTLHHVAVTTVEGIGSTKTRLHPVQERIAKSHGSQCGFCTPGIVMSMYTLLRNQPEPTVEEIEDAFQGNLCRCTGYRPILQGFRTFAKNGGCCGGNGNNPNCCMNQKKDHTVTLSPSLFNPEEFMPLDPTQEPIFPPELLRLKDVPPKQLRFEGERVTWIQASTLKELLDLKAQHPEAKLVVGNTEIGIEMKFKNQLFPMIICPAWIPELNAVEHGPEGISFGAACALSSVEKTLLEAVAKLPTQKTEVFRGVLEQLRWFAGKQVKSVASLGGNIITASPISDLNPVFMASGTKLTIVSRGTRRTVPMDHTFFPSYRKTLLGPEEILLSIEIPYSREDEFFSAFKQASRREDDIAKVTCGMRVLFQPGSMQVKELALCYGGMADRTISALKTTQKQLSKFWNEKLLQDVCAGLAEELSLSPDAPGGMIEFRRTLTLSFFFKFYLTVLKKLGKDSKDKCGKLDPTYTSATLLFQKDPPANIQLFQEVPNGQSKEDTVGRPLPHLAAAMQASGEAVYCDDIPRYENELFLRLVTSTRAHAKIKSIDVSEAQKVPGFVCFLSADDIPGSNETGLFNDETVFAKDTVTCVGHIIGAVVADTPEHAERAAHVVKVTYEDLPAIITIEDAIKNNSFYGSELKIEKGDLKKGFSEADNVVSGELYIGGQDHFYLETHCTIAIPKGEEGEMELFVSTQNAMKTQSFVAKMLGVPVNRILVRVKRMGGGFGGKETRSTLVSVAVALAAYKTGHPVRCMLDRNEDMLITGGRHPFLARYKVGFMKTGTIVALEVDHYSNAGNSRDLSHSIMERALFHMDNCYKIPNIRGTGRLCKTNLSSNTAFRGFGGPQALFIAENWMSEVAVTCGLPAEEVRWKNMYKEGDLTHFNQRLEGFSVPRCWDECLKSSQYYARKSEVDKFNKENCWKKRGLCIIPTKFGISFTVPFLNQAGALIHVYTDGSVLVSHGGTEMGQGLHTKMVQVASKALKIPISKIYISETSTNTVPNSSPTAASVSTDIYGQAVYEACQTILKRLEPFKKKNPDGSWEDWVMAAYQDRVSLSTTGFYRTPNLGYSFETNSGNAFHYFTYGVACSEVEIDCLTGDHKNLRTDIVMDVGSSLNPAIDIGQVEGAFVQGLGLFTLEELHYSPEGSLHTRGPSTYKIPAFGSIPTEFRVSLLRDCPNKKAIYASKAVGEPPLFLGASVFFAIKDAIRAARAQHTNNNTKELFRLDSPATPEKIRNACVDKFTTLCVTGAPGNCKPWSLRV

In the case of `COc1cc(-c2cnn3c(=O)nc[nH]c23)ccc1[S+]([O-])c1ccccc1` (stereo not shown) [BOF], the inhibition constant (Ki) (usually the dissociation constant of the complex between target and ligand, obtained from inhibition or displacement) in experiment [1] was < 0.01 µM.

On to `Cc1nc(-c2ccc(OCC(C)C)c(C#N)c2)sc1C(=O)O` [Febuxostat], for which the Types of inhibition result in experiment [2] (substrate hypoxanthine) and in experiment [2] (substrate xanthine) was “Mixed” in each case.

Consider `O=c1ncnc2n([C@H]3O[C@@H](CO)[C@H](O)[C@@H]3O)[nH]cc1-2` [ribosyl derivative], for which the Ki in experiment [3] was > 200 µM.
